Experimental data taken from patent US20240300991A1, “NUCLEOSIDE DERIVATIVE HAVING MULTI-TARGET KINASE INHIBITORY ACTIVITY AND PHARMACEUTICAL COMPOSITION FOR PREVENTING AND TREATING CANCER COMPRISING SAME” (FUTURE MEDICINE CO., LTD., priority 2021, published 2024).
pIC50: −log10 of the molar value.

Experiments:
[1] = system: HCT116 (colon cancer cells); experiment: Inhibitory activity against cancer cells (sulforhodamine B staining); assay type: cell-based; conditions: 3 days, SRB staining
Description: (§1) In order to examine the anticancer activity of the nucleoside derivatives of the present invention synthesized in the Preparation Examples, the ICso of each of A549 (lung cancer cells), HCT116 (colon cancer cells), MDA-MB-231 (breast cancer cells), SK-Hep-1 (liver cancer cells), SNU638 (stomach cancer cells) and PC-3 (prostate cancer cells) against cancer cells was measured.
(§2) The test method is as follows. Cells were allowed to stand for 1 day and set as a control on day 0. Further, after a test material was added to the cells, the cells were allowed to stand for 3 days. Thereafter, the cells were stained with 1% acetic acid and 0.4% sulforhodamine B. The stained cells were dried and dissolved in 10 mM Tris (pH 10.0). Absorbance was measured at 515 nm, and the degree of cell division was determined using the following equation. After calculation as Cell division (%)=(average absorbancetest material−average absorbanceday 0)/(average absorbance control-average absorbanceday 0)×100, the degree of cell division was calculated through a non-linear regression analysis using Table Curve 2D v5.01 (Systat Software Inc., San Jose, CA, USA).

[2] = system: PC-3 (prostate cancer cells); experiment: as above; assay type: cell-based; conditions: 3 days, SRB staining
Description: as §1, §2

[3] = system: SNU638 (stomach cancer cells); experiment: as above; assay type: cell-based; conditions: 3 days, SRB staining
Description: as §1, §2

[4] = system: SK-Hep-1 (liver cancer cells); experiment: as above; assay type: cell-based; conditions: 3 days, SRB staining
Description: as §1, §2

A549 (lung cancer cells) = experiment: as above; assay type: cell-based; conditions: 3 days, SRB staining
Description: as §1, §2

[5] = system: MDA-MB-231 (breast cancer cells); experiment: as above; assay type: cell-based; conditions: 3 days, SRB staining
Description: as §1, §2

DYRK1B = biological target: T1, DYRK1B (Homo sapiens, UniProt Q9Y463); experiment: Kinase inhibition test (DNA-tagged kinase, affinity resin, qPCR readout); assay type: binding; design: key: (−) indicates no effect; (+) indicates weak inhibitory activity; (++) indicates a moderate level of inhibitory activity; (+++) indicates strong inhibitory activity; conditions: 1 μM of compound
T1 construct: made in house
From the text: (§3) In order to examine the inhibitory activity of the nucleoside derivatives of the present invention synthesized in the Preparation Examples against kinases, the nucleoside derivatives were confirmed to have inhibitory activity against neurotrophic tyrosine kinase receptor type 1 or tropomyosin receptor kinase A (NTRK1), casein kinase 1 isoform delta (CSNK1D), dual specificity tyrosine-phosphorylation-regulated kinase 1A (DYRK1A), dual specificity tyrosine-phosphorylation-regulated kinase 1B (DYRK1B) and receptor-type tyrosine-protein kinase or fms like tyrosine kinase 3 or cluster of differentiation antigen 135 (CD135) or fetal liver kinase-2 (Flk2) (FLT3).
(§4) The inhibition measurement method is as follows. Most of the kinases were produced by culturing a phage in which BL21 E. coli was tagged with a kinase at 32° C. until lysis, followed by centrifugation and filtration. Further, the kinases were produced using HEK-293 cells. Thereafter, the kinases were DNA tagged for qPCR. After an affinity resin was prepared by stirring a biotin-tagged substrate onto streptavidin-coated beads for 30 minutes, a non-specifically bound substrate was washed with a buffer (SeaBlock (Pierce), 1% BSA, 0.05% Tween 20, 1 mM DTT).
(§5) For a kinase test, the kinase, the substrate, the affinity resin, and a test material dissolved in dimethyl sulfoxide were stirred together in a buffer (20% SeaBlock, 0.17×PBS, 0.05% Tween20, and 6 mM DTT) at room temperature for 1 hour. Thereafter, an affinity substrate was washed with a buffer (1×PBS, 0.05% Tween20), and then suspended in an elution buffer (1×PBS, 0.05% Tween20, 0.5 μM non-biotinylated affinity ligand), and the resulting suspension was stirred. The concentration of the kinase was quantified by qPCR.

CSNK1D = biological target: T2, CSNK1D (Homo sapiens, UniProt P48730); experiment: as above; assay type: binding; design: key: (−) indicates no effect; (+) indicates weak inhibitory activity; (++) indicates a moderate level of inhibitory activity; (+++) indicates strong inhibitory activity; conditions: 1 μM of compound
T2 construct: made in house
From the text: as §3, §4, §5

DYRK1A = biological target: T3, DYRK1A (Homo sapiens, UniProt Q13627); experiment: as above; assay type: binding; design: key: (−) indicates no effect; (+) indicates weak inhibitory activity; (++) indicates a moderate level of inhibitory activity; (+++) indicates strong inhibitory activity; conditions: 1 μM of compound
T3 construct: made in house
From the text: as §3, §4, §5

NTRK1 = biological target: T4, NTRK1 (Homo sapiens, UniProt P04629); experiment: as above; assay type: binding; design: key: (−) indicates no effect; (+) indicates weak inhibitory activity; (++) indicates a moderate level of inhibitory activity; (+++) indicates strong inhibitory activity; conditions: 1 μM of compound
T4 construct: made in house
From the text: as §3, §4, §5

T4 sequence (P04629 33-796): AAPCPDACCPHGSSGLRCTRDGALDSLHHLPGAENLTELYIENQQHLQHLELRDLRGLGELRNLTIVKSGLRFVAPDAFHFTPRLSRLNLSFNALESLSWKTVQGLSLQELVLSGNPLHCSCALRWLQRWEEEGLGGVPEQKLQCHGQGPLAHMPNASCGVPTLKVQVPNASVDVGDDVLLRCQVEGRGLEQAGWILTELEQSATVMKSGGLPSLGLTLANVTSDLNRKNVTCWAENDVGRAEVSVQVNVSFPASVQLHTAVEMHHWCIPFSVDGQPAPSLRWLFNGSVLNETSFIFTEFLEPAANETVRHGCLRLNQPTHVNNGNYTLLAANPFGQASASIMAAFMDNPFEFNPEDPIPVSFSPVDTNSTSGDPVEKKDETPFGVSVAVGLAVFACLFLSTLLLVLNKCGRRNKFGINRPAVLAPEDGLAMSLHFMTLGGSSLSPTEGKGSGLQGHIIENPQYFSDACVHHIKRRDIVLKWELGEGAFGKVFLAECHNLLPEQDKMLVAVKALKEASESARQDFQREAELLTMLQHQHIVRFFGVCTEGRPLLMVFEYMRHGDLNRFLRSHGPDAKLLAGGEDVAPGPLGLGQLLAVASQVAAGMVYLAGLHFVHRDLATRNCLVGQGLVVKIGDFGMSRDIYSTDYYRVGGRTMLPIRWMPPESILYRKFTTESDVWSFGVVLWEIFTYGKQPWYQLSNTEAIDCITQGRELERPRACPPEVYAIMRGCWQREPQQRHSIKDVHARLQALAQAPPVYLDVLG
T1 sequence (Q9Y463 whole entry): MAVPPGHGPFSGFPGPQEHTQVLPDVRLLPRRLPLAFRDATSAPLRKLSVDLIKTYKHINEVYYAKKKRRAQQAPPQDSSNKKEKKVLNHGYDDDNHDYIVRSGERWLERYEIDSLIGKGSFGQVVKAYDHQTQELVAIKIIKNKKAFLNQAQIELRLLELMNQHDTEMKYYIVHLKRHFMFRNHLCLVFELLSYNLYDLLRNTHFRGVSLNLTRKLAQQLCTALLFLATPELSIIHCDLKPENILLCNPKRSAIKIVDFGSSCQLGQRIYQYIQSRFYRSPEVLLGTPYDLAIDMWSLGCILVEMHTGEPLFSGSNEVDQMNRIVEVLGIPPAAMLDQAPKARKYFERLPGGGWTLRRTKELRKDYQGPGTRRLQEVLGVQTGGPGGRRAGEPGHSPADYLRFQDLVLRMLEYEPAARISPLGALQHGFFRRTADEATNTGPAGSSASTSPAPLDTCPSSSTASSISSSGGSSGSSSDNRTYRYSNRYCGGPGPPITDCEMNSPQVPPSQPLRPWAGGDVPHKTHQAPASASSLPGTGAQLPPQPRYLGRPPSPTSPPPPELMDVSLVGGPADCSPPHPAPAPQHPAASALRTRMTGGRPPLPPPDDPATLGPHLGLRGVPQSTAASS
T2 sequence (P48730 whole entry): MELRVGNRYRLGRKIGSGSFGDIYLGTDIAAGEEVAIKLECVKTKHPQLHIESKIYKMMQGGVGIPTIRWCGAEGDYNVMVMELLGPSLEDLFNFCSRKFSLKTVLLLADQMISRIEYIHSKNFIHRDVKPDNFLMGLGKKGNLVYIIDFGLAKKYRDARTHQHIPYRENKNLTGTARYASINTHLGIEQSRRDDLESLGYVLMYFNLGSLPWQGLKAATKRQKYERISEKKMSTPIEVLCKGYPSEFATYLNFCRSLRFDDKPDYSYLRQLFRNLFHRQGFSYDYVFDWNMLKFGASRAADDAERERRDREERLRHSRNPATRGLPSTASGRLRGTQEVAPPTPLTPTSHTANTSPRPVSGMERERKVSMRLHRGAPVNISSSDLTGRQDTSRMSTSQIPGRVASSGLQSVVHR

SMILES	pIC50 [1]	pIC50 [2]	pIC50 [3]	pIC50 [4]	pIC50 (A549 (lung cancer cells))	pIC50 [5]	DYRK1B inhibitory activity (DYRK1B)	CSNK1D inhibitory activity (CSNK1D)	DYRK1A inhibitory activity (DYRK1A)	NTRK1 inhibitory activity (NTRK1)	pIC50 ([1]; Homo sapiens, HCT-116, 72 h)	pIC50 ([2]; 72 h)	pIC50 ([3]; Homo sapiens, SNU-638, 72 h)	pIC50 ([4]; Homo sapiens, SK-HEP1, 72 h)	pIC50 (A549 (lung cancer cells); Homo sapiens, 72 h)	pIC50 ([5]; Homo sapiens, 72 h)
Nc1ncnc2c1c(-c1ccco1)cn2[C@@H]1S[C@H](COC(=O)c2ccccc2)[C@@H](O)[C@H]1O [Compound 7a]	5.66	< 4.30	5.45	5.97	5.22	5.08	+++	++	+++	+++						
C=Cc1cn([C@@H]2SC[C@@H](O)[C@H]2O)c2ncnc(N)c12 [Compound 13e]	5.55	5.27	5.45	5.29	5.36	5.27	++	++	++	++						
C#Cc1cn([C@@H]2S[C@H](CNCC)[C@@H](O)[C@H]2O)c2ncnc(N)c12 [Compound 11b, (2R,3R,4S,5R)-2-(4-amino-5-ethynyl-7H-pyrrolo[2,3-d]pyrimidin-7-yl)-5-((ethylamino)methyl)tetrahydrothiophene-3,4-diol]							++	+++	++	+++	4.89	4.85	4.97	4.89	4.91	4.84
Nc1ncnc2c1c(-c1ccco1)cn2[C@@H]1S[C@H](CO)[C@@H](O)[C@H]1O [Compound 1a, (2R,3R,4S,5R)-2-(4-amino-5-(furan-2-yl)-7H-pyrrolo[2,3-d]pyrimidin-7-yl)-5-(hydroxymethyl)tetrahydrothiophene-3,4-diol]							+++	++	+++	+++		5.61				
C#Cc1cn([C@@H]2SC[C@@H](O)[C@H]2O)c2ncnc(N)c12 [Compound 13a]	6.07	5.86	5.92	5.90	6.23	5.94	++	++	++	++						
N#Cc1cn([C@@H]2S[C@H](CN=[N+]=[N-])[C@@H](O)[C@H]2O)c2ncnc(N)c12 [Compound 9b]	6.25	6.35	6.92	5.98	6.64	6.42	+++	+++	+++	+++						
C#Cc1cn([C@@H]2S[C@H](CNC(=O)c3ccc(OC)cc3)[C@@H](O)[C@H]2O)c2ncnc(N)c12 [Compound 8c]	4.86	4.83	4.91	4.91	5.00	4.98	++	++	+++	+++						
C#Cc1cn([C@@H]2S[C@H](COC(=O)c3ccncc3)[C@@H](O)[C@H]2O)c2ncnc(N)c12 [Compound 7f]	7.42	7.11	7.32	7.30	7.15	7.13	++	++	++	+++						
[N-]=[N+]=NC[C@H]1S[C@@H](n2cc(C(N)=O)c3c(N)ncnc32)[C@H](O)[C@@H]1O [Compound 9c]	6.07	6.44	6.46	6.11	6.62	6.59	+++	+++	+++	+++						
Nc1ncnc2c1c(-c1cccs1)cn2[C@@H]1S[C@H](CO)[C@@H](O)[C@H]1O [Compound 1b, (2R,3R,4S,5R)-2-(4-amino-5-(thiophen-2-yl)-7H-pyrrolo[2,3-d]pyrimidin-7-yl)-5-(hydroxymethyl)tetrahydrothiophene-3,4-diol]							++	+++	++	+++		5.61				
C#Cc1cn([C@@H]2S[C@H](CN3CCOCC3)[C@@H](O)[C@H]2O)c2ncnc(N)c12 [Compound 12a, (2R,3R,4S,5R)-2-(4-amino-5-ethynyl-7H-pyrrolo[2,3-d]pyrimidin-7-yl)-5-(morpholinomethyl)tetrahydrothiophene-3,4-diol]											5.01	4.88	5.01	4.99	4.93	4.95
C#Cc1cn([C@@H]2SC(=C)[C@@H](O)[C@H]2O)c2ncnc(N)c12 [Compound 12b, (2R,3R,4S)-2-(4-amino-5-ethynyl-7H-pyrrolo[2,3-d]pyrimidin-7-yl)-5-methylenetetrahydrothiophene-3,4-diol]							+++	+++	+++	+++	6.14		6.21	6.51	6.60	6.30
